Test results published in patent US20060040861A1, “Method of treating, preventing, and diagnosing prostate cancer” (priority 2004, published 2006).

How the values were obtained:
Assay type in all cases: cell-based, human
[1] = tested on: DU145 cells; assay: MTT assay (cell growth / viability); settings: 0-1.92 μg/ml, 5 days
Procedure: (§1) DU145 (1×10^3/well), PC-3 (1×10^3/well) and LNCaP-FGC (1.5×10^3/well) cells were seeded in 96-well plates 24 hours prior to serum starvation. Cells were starved of serum for 24 hours and then incubated in the serum-free medium with or without 12.5 μg/ml leptin for 5 days. 3-(4,5-dimethylthiazol-2-yl)-2,5-diphenyl tetrazolium bromide (MTT) was added to each well to a concentration of 0.5 mg/ml. After 3-hour incubation at 37° C., cells were lysed in 50% dimethylformamide and 20% SDS at 37° C. Optical densities (O.D.) at 550 nm and 670 nm were measured by a plate reader, and differential O.D. between 550 nm and 670 nm (O.D. 550 nm minus O.D. 670 nm) were determined. Each experiment was performed in quadruplicate, and the values are reported as mean±SD.
(§2) DU145 (0.5-1.0×10^3/well), PC-3 (0.5-1.0×10^3/well), and LNCaP FGC (0.75-1.5×10^3/well) cells were seeded in 96-well plates 24 hours prior to serum starvation. Cells were starved of serum for 24 hours and then incubated in the serum-free medium with or without cytokine(s), DHT and/or doxorubicin at indicated concentrations for 5 days. MTT was added to each well to a concentration of 0.5 mg/ml. After being incubated at 37° C. for 3 hours, cells were lysed in 50% dimethylformamide and 20% SDS at 37° C. Optical densities (OD) at 550 and 670 nm were measured by a plate reader, and differential OD between 550 and 670 nm (OD 550 minus OD 670 nm) were determined. Each experiment was performed in quadruplicate, and the values were reported as mean±S.D.
Sucrose gradients were set up in 2.2-ml centrifuge tubes (Beckman Coulter, Inc., Fullerton, Calif.) by layering 5, 10, 15 and 20% (w/v) sucrose in velocity sedimentation buffer (10 mM HEPES, pH 8; 125 mM NaCl). Gradients were then equilibrated overnight at 4° C. Twenty micrograms of f-adiponectin in 200 μl of velocity sedimentation buffer containing 5 μl of HMW-Native protein marker kit (GE Healthcare, Piscataway, N.J.) set to 0.5 μg/μl albumin was overlayed onto the sucrose gradients and spun in a Beckman TLS-55 rotor at 55,000 rpm for 5 hours at 4° C. Fractions (150 μl each) were sequentially collected from the top to the bottom; aliquots were removed and used immediately in the MTT assay. The remaining material was stored at −80° C. for Western blot analysis with anti-adiponectin antibody and SDS-PAGE with silver staining. For the MTT assay, DU145 cells (0.5×1 03/well) were serum-starved and incubated in triplicate in 60 μl of the serum-free medium plus 30 μl of each fraction. For Western blot analysis, 0.5 μl of each fraction was electrophoresed on a 10% SDS-polyacrylamide gel and electrotransferred to a polyvinylidene difluoride membrane. The membrane was washed, blocked, and hybridized with the anti-adiponectin antibody. Bands were visualized using a Lumiglo reagent (Cell Signaling Technology, Inc., Beverly, Mass.). For SDS-PAGE, 20 μl of each fraction was electrophoresed on a 10% SDS-polyacrylamide gel, followed by silver staining using the Silver Stain kit (Bio-Rad Laboratories, Inc., Hercules, Calif.) to visualize molecular weight markers.

[2] = tested on: LNCaP-FGC cells; assay: MTT assay (cell growth / viability); settings: 0-1.92 μg/ml, 5 days
Procedure: as §1, §2

[3] = tested on: PC-3 cells; assay: MTT assay (cell growth / viability); settings: 0-1.92 μg/ml, 5 days
Procedure: as §1, §2

[4] = tested on: DU145 cells; assay: [3H] thymidine incorporation assay; settings: DU145, serum-deprived; leptin up to 12.5 μg/ml, IL-6 100 ng/ml or IGF-I 100 ng/ml; 20 hours
Procedure: (§3) DU145 (1.5×10^5/well), PC-3 (1.0×10^5/well) and LNCaP-FGC (2.0×10^5/well) cells were seeded into 24-well plates 24 hours before serum-starvation. Cells were deprived of serum for 48 hours, followed by incubation with leptin at indicated concentrations or 100 ng/ml IL-6 for 20 hours. In some experiments, cells were pretreated with SP600125 prior to cytokine stimulation as described below. Cells in each well were pulsed with 1 μCi of [^3H] thymidine (Amersham Pharmacia Biotech Inc., Piscataway, N.J., USA) during the final 5 hours, washed once with PBS, fixed with cold 5% trichloroacetic acid, solubilized with 0.25 M NaOH, and counted in scintillant. Each experiment was performed in quadruplicate, and the values are reported as mean±SD.
(§4) SP600125 was dissolved in DMSO to make a stock solution. Eighty-percent confluent prostate cancer cells were serum-starved for 24 hours and pretreated with SP600125 at indicated concentrations for 30 minutes, followed by leptin treatment (12.5 μg/ml): 15 minutes for Western blot analysis or 20 hours for thymidine incorporation assays. DMSO-treated cells were employed as controls.

[5] = tested on: PC-3 cells; assay: [3H] thymidine incorporation assay; settings: PC-3, serum-deprived; leptin up to 12.5 μg/ml, IL-6 100 ng/ml or IGF-I 100 ng/ml; 20 hours
Procedure: as §3, §4

[6] = tested on: LNCaP-FGC cells; assay: [3H] thymidine incorporation assay; settings: serum-deprived, leptin up to 12.5 μg/ml, IL-6 100 ng/ml or IGF-I 100 ng/ml, 20 hours
Procedure: as §3

| Compound | cell growth (MTT), doxorubicin alone [1] | cell growth (MTT), doxorubicin alone [2] | cell growth (MTT), doxorubicin alone [3] | [3H] thymidine incorporation (cell proliferation), cytokine alone [4] | [3H] thymidine incorporation (cell proliferation), cytokine alone [5] | [3H] thymidine incorporation (cell proliferation), cytokine alone [6] |
| --- | --- | --- | --- | --- | --- | --- |
| COc1cccc2c1C(=O)c1c(O)c3c(c(O)c1C2=O)C[C@@](O)(C(=O)CO)C[C@@H]3O[C@H]1C[C@H](N)[C@H](O)[C@H](C)O1 [doxorubicin, reference compound] | suppressed cell growth in a dose-dependent manner | suppressed cell growth in a dose-dependent manner | suppressed cell growth in a dose-dependent manner | – | – | – |
| IGF-I: Recombinant human IGF-I from R&D Systems; adipose cytokine | – | – | – | augmented cell proliferation | augmented cell proliferation | did not affect |
| IL-6: Recombinant human IL-6 purchased from R&D Systems; adipose cytokine | – | – | – | stimulated cell proliferation | stimulated cell proliferation | inhibited |
